No end group written: not given here.
Experiments:
[1] = molecular target: T1, porcine pancreatic lipase (PL) (Sus scrofa, UniProt P00591); test: In vitro PL inhibition assay (p-nitrophenylbutyrate substrate); type: biochemical; conditions: triplicate; for IC50: porcine PL 1 mg/mL in 100 mM Tris HCl, pre-incubation 37 °C 30 min, 5 mM p-nitrophenylbutyrate, absorbance 450 nm, from fitted inhibition curve; for PL inhibition rate: range over concentrations of 0.2–1.0 mg/mL, 37 °C, 30 min pre-incubation
T1 construct: purchased Jiangsu Jingmei Bio technology (Yancheng, China)
T1 sequence (P00591 1-450): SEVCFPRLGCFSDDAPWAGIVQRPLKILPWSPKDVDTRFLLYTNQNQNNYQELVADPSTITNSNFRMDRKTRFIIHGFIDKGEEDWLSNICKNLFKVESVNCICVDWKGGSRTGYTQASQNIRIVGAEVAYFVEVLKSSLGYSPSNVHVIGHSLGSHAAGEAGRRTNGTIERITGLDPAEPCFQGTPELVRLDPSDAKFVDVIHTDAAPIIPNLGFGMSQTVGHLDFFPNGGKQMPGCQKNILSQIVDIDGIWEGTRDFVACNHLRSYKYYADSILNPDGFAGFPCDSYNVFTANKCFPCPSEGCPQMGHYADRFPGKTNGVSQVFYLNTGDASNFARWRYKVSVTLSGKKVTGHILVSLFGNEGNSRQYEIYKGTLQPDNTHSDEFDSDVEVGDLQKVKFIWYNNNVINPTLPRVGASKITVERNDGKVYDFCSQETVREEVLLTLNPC
Experimental: (§1) This experiment, based on the method of Glisan et al. and with slight modifications to the experimental method, determined the effects of peptides RK7 and KQ7 on porcine pancreatic lipase (PL). Firstly, dissolve p-nitrophenylbutyrate (5 mM) in a sodium acetate solution (5 mM, containing 1% Triton X-100). Dissolve porcine pancreatic lipase (PL) (1 mg/mL) in 100 mM Tris HCl buffer. Incubate with different concentrations of porcine pancreatic lipase (PL) and peptides in 96-well plates (37 °C) for 30 min. Then, mix with 5 mM p-nitrophenylbutyrate solution to initiate the enzyme reaction. The labeled pig pancreatic lipase antibody binds to form an antibody–antigen enzyme-labeled antibody complex. The substrate is converted to blue by enzyme catalysis and ultimately to yellow by acid action. The intensity of color is positively correlated with the presence of porcine pancreatic lipase (PL) in the sample. The enzyme-linked immunosorbent assay (ELISA) was used to measure the absorbance (OD value) at a wavelength of 450 nm, and the activity concentration of porcine pancreatic lipase (PL) in the sample was calculated using a standard curve.(1) PL inhibition rate/%=1−A−B/C−D × 100 where A is the absorbance value of the sample; B is the absorbance value of the sample blank; C is the absorbance value of the control group; and D is the absorbance value of the control blank group.
All measured data in the experiment were determined independently and measured in triplicate. All data were processed using SPSS Statistics 26.0. Data plots were generated using Origin 8.5 and GraphPad Prism 8.0.2.

[2] = molecular target: T1, porcine pancreatic lipase (PL); test: PL inhibitory activity after simulated gastrointestinal digestion (pepsin, then trypsin); type: biochemical; conditions: pepsin pH 2, then trypsin pH 7.5, enzyme–substrate 1:50 w/w, 37 °C
Experimental: as §1, with “group. […]” for “group.”

| IC50 [1] [µM] | PL inhibition rate at 120 min of simulated gastrointestinal digestion ([2]; 120 min time point) [%] | PL inhibition rate [1] | PL inhibition rate after simulated gastrointestinal digestion (range over digestion) ([2]; 120-minute digestion, sampled every 30 min) | Compound |
| --- | --- | --- | --- | --- |
| 760 | 61.31 | – | – | KVLPVPQ [KQ7, Lys-Val-Leu-Pro-Val-Pro-Gln] |
| 788 | – | 19.74–62.32% | 44.34–62.35% | RPKHPIK [RK7, Arg-Pro-Lys-His-Pro-Ile-Lys] |
| 886 | – | 29.27–67.09% | – | CC(C)c1c(C(=O)Nc2ccccc2)c(-c2ccccc2)c(-c2ccc(F)cc2)n1CC[C@@H](O)C[C@@H](O)CC(=O)O [atorvastatin, reference compound] |

From publication PMC11771213, “Molecular Docking Studies and In Vitro Activity of Pancreatic Lipase Inhibitors from Yak Milk Cheese” (International Journal of Molecular Sciences, 2025)
